Common to all, as to test: Bliss excess, mean over the matrix (fraction); higher = more synergy
The test system of one assay is 769-P (Kidney Carcinoma). Put shortly:
(§1)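 After 24 hours at 37°C and 5% CO2 in 1536-well plates, cells in DMEM/F12 or RPMI plus 10% FBS received two-drug dose matrices for 72 hours. Viability came from CellTiter-Glo 2.0 luminescence and was scaled as inhibition, anchored at 0 by vehicle wells and at 1 by blank wells. Combination Emax is taken as the second-highest inhibition in the matrix, and Bliss excess as the observed combination effect less EA + EB − EA·EB, with EA and EB the single-agent effects.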

Assay [1] relates to A253 (Head and Neck Carcinoma). Put shortly:
as §1

For assay [2], the system named is A2780 (Ovarian Carcinoma). The essentials:
as §1

Another assay has as its system AU565 (Breast Carcinoma). Put shortly: as §1
Assay [3] relates to CA46 (Burkitt's Lymphoma). The essentials: as §1
Assay [4] concerns CAL-27 (Oral Cavity Carcinoma). The essentials:
as §1

The subject of assay [5] is CGTH-W-1 (Thyroid Gland Carcinoma). The essentials:
as §1

Assay [6] concerns DMS-53 (Small Cell Lung Carcinoma). The essentials: as §1
Assay [7] concerns EPLC-272H (Other Solid Carcinomas). The essentials:
as §1

A further assay relates to EW-16 (Ewing's Sarcoma). The essentials:
as §1

The test system of assay [8] is GCT (Other Solid Carcinomas). The essentials: as §1
Assay [9] deals with HCC1428 (Breast Carcinoma). The essentials:
as §1

The subject of assay [10] is JIMT-1 (Breast Carcinoma). The essentials: as §1
In assay [11] the test system is Jurkat (T-Lymphoblastic Leukemia). Put shortly:
as §1

The subject of assay [12] is LS-411N (Colorectal Carcinoma). The essentials:
as §1

Assay [13] relates to MDA-MB-436 (Breast Carcinoma). Put shortly: as §1
For assay [14], the system named is NCI-H1651 (Lung Adenocarcinoma). Put shortly:
as §1

For assay [15], the system named is NCI-H441 (Lung Adenocarcinoma). Put shortly:
as §1

A further assay relates to RH-41 (Rhabdomyosarcoma). The essentials:
as §1

Assay [16] concerns huH-1 (Hepatocellular Carcinoma). Put shortly: as §1

SMILES strings stand for the structures.

For the compound `Cc1c2c(nn1C)CSCc1cc(n(C)n1)CSc1cc(c3ccccc3c1)OCCCc1c(C(=O)O)n(C)c3c-2c(Cl)ccc13` [AZD5991] + CN(C)CCCOc1ccc(-c2ccc3ncc4c(c3c2)n(C2CCOCC2)c(=O)n4C)cn1 [AZD0156] (first compound max 1 µM, 7x7, partner max 1 µM), the Bliss excess was -0.0089 in the assay on 769-P (Kidney Carcinoma); 0.0058 in assay [1]; -0.0094 in assay [2]; 0.0204 with AU565 (Breast Carcinoma); -0.0705 in assay [3]; -0.0227 in assay [4]. For the same compound, the Bliss excess is -0.0151 in [5]; 0.0854 in [6]; 0.0047 in assay [7]; -0.0014 in the assay with EW-16 (Ewing's Sarcoma); 0.0338 in assay [8]; -0.0089 in [9]. Moreover, the Bliss excess in assay [10] is -0.0129; in assay [11], -0.0219; in assay [12], -0.0058; in assay [13], -0.0369; in assay [14], 0.0042; in assay [15] it was 0.0031. The Bliss excess in the assay with RH-41 (Rhabdomyosarcoma) is 0.0044; in assay [16] it was -0.0069.

Take `CN(CCO)CC[C@H](CSc1ccccc1)Nc1ccc(S(=O)(=O)NC(=O)c2ccc(N3CCC([C@@H](O)c4ccccc4-c4ccc(Cl)cc4)CC3)cc2)cc1S(=O)(=O)C(F)(F)F` [AZD4320] + CN(C)CCCOc1ccc(-c2ccc3ncc4c(c3c2)n(C2CCOCC2)c(=O)n4C)cn1 [AZD0156] (first compound max 1 µM, 7x7, partner max 1 µM): the Bliss excess in the assay with 769-P (Kidney Carcinoma) was -0.0444; in [1], 0.0114; in [2], -0.0519; with AU565 (Breast Carcinoma) it was 0.0203; in assay [3], 0.0092; in assay [4], -0.0136. Besides, the Bliss excess is -0.0346 in [5]; 0.0316 in assay [6]; 0.0102 in assay [7]; -0.003 in the assay on EW-16 (Ewing's Sarcoma); -0.0401 in assay [8]; 0.0307 in assay [9]. Moreover, the Bliss excess in assay [10] is -0.0344; in assay [11], -0.0012; in [12], -0.0009; in assay [13] it was -0.0496; in assay [14], -0.026; in assay [15], -0.022. The Bliss excess is -0.0265 in the assay with RH-41 (Rhabdomyosarcoma) and -0.0419 in assay [16].

Take `CC1(C)CCC(CN2CCN(c3ccc(C(=O)NS(=O)(=O)c4ccc(NCC5CCOCC5)c([N+](=O)[O-])c4)c(Oc4cnc5[nH]ccc5c4)c3)CC2)=C(c2ccc(Cl)cc2)C1` [Venetoclax] + C1CN(CCC1(C(=O)N[C@@H](CCO)C2=CC=C(C=C2)Cl)N)C3=NC=NC4=C3C=CN4 [Capivasertib] (first compound max 1 µM, 7x7, partner max 3 µM): the Bliss excess in the assay with 769-P (Kidney Carcinoma) is -0.0433; in assay [1], -0.0084; in assay [2] it was -0.0223; in the assay on AU565 (Breast Carcinoma), 0.0463; in assay [3], -0.0473; in assay [4], -0.0432. For the same compound, the Bliss excess was -0.0532 in assay [5]; 0.0707 in [6]; -0.0465 in [7]; -0.0498 with EW-16 (Ewing's Sarcoma); -0.0401 in assay [8]; -0.0377 in assay [9]. In addition, the Bliss excess is -0.0836 in assay [10]; -0.016 in assay [11]; -0.0139 in assay [12]; -0.0513 in assay [13]; -0.0184 in assay [14]; -0.0707 in [15]. Also, the Bliss excess was 0.0441 in the assay with RH-41 (Rhabdomyosarcoma) and -0.0411 in assay [16].

Regarding `CC(=O)Nc1cccc(-n2c(=O)n(C3CC3)c(=O)c3c(Nc4ccc(I)cc4F)n(C)c(=O)c(C)c32)c1` [Trametinib] + Cc1nc(-c2cn3c(n2)-c2ccc(-c4cnn(C(C)(C)C(N)=O)c4)cc2OCC3)n(C(C)C)n1 [Taselisib] (first compound max 1 µM, 7x7, partner max 10 µM), the Bliss excess in the assay on 769-P (Kidney Carcinoma) came to 0.0182; in assay [1], 0.145; in [2], 0.0164; with AU565 (Breast Carcinoma), 0.102; in assay [3] it was 0.0404; in assay [4], 0.128. For the same compound, the Bliss excess in [5] came to 0.174; in assay [6], 0.0285; in [7], 0.041; in the assay on EW-16 (Ewing's Sarcoma), 0.0772; in [8], 0.148; in assay [9] it was 0.0116. Moreover, the Bliss excess in assay [10] is 0.11; in assay [11] it was 0.0414; in [12] it was 0.125; in [13] it was 0.0567; in assay [14], 0.0354; in [15], 0.102. For the same compound, the Bliss excess with RH-41 (Rhabdomyosarcoma) is 0.0419; in assay [16], 0.195.

As for `COc1nnc2ccc(N3CCC(c4ccc(OCCN5CCN(C)C(=O)[C@H]5C)cc4)CC3)nn12` [AZD5153] + CC1(C)CCC(CN2CCN(c3ccc(C(=O)NS(=O)(=O)c4ccc(NCC5CCOCC5)c([N+](=O)[O-])c4)c(Oc4cnc5[nH]ccc5c4)c3)CC2)=C(c2ccc(Cl)cc2)C1 [Venetoclax] (first compound max 1 µM, 7x7, partner max 1 µM), the Bliss excess with 769-P (Kidney Carcinoma) is -0.0457; in assay [1], -0.0724; in assay [2], -0.0689; in the assay with AU565 (Breast Carcinoma), 0.0002; in assay [3], -0.052; in assay [4], -0.0394. Also, the Bliss excess in [5] is -0.0407; in assay [6], -0.0406; in [7] it was -0.0378; in the assay with EW-16 (Ewing's Sarcoma), -0.0593; in assay [8], -0.107; in assay [9], -0.0592. Moreover, the Bliss excess was -0.0629 in [10]; -0.0444 in [11]; -0.0573 in assay [12]; -0.0572 in [13]; -0.0338 in assay [14]; -0.0137 in assay [15]. Moreover, the figures for the Bliss excess (with RH-41 (Rhabdomyosarcoma); in [16]) were 0.0374 and -0.0962, respectively.

In the case of `NC1(C(=O)N[C@@H](CCO)c2ccc(Cl)cc2)CCN(c2ncnc3[nH]ccc23)CC1` [Capivasertib] + C[C@@H]1COCCN1C2=NC(=NC(=C2)C3(CC3)[S@](=N)(=O)C)C4=C5C=CNC5=NC=C4 [AZD6738] (first compound max 10 µM, 7x7, partner max 10 µM), the Bliss excess in the assay with 769-P (Kidney Carcinoma) was -0.0448; in assay [1] it was -0.0163; in [2] it was -0.0336; with AU565 (Breast Carcinoma), -0.0126; in [3] it was 0.0324; in assay [4] it was -0.0792. Also, the Bliss excess in [5] was -0.0508; in assay [6], -0.0279; in [7], -0.0353; with EW-16 (Ewing's Sarcoma), 0.0116; in assay [8], -0.0719; in assay [9] it was -0.0066. Further, the Bliss excess in assay [10] is -0.0321; in assay [11], -0.0403; in assay [12], -0.0605; in assay [13] it was -0.0473; in assay [14] it was -0.0528; in [15], -0.0011. The Bliss excess in the assay with RH-41 (Rhabdomyosarcoma) is -0.0389; in [16], -0.0533.

Consider `Cn1cnc2c(F)c(Nc3ccc(Br)cc3Cl)c(C(=O)NOCCO)cc21` [Selumetinib] + C[C@@H]1COCCN1C2=NC(=NC(=C2)C3(CC3)[S@](=N)(=O)C)C4=C5C=CNC5=NC=C4 [AZD6738] (first compound max 10 µM, 7x7, partner max 10 µM), for which the Bliss excess in the assay on 769-P (Kidney Carcinoma) was -0.0122; in assay [1] it was -0.0229; in [2], 0.0429; in the assay on AU565 (Breast Carcinoma), -0.0014; in assay [3], -0.0159; in [4], 0.0939. Moreover, the Bliss excess in [5] is -0.0232; in assay [6], -0.0272; in [7], -0.0497; in the assay on EW-16 (Ewing's Sarcoma), -0.0914; in assay [8], 0.0294; in [9], -0.0527. Further, the Bliss excess was -0.0853 in assay [10]; -0.0227 in assay [11]; -0.0195 in assay [12]; -0.0064 in assay [13]; -0.0638 in assay [14]; 0.0498 in assay [15]. Also, the Bliss excess in the assay on RH-41 (Rhabdomyosarcoma) was -0.0004; in assay [16] it was -0.0551.
